Patent US8586505B2 (SDS Biotech K. K., priority 2009, dated 2013)

Columns and labels:
Sphaerotheca fuliginea = test: Test of examining control effect on Sphaerotheca fuliginea (potted cucumber plants); assay type: in vivo; settings: Podosphaera fuliginea, 336 h; 10% wettable powder adjusted to 125 ppm, 15 ml/pot sprayed on potted cucumber plants one day before spray inoculation; assessed after 14 days in greenhouse; read-out: Determination of control effect (preventive value) on Sphaerotheca fuliginea
Outline: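 Control effect rated high at preventive value 60–100% and low below 60%, from lesion area relative to untreated plants 14 days after spray inoculation with S. fuliginea (1.0×10^5 cells/ml). Compound applied at 125 ppm as wettable-powder spray one day before inoculation, on 2nd-leaf-stage Sagamihanjiro cucumber.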

[1] = system: Pseudoperonospora cubensis; test: Test of examining control effect on Pseudoperonospora cubensis (potted cucumber plants); assay type: in vivo; settings: 96 h, 10% wettable powder adjusted to 125 ppm, 15 ml/pot sprayed on potted cucumber plants one day before spray inoculation, assessed after 1 day wet chamber and 3 days greenhouse, read-out: Determination of control effect (preventive value) on Pseudoperonospora cubensis
Outline: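 Preventive treatment: 125 ppm sample agent solution (from 10% wettable powder) sprayed at 15 ml/pot on 2.5-leaf Sagamihanjiro cucumbers, then P. cubensis inoculated next day at 1.0×10^4 cells/ml. Incubation was 1 day wet at 21° C plus 3 days greenhouse. Lesion area rate compared with untreated gives preventive value (≥60% high).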

Phytophthora infestans = test: whole plant or invertebrate; assay type: in vivo; settings: in Solanum lycopersicum, 96 h, read-out: Determination of control effect (preventive value)

Compound | melting point | pest or weed control at 125 µg/mL (Sphaerotheca fuliginea) | pest or weed control at 125 µg/mL [1] | pest or weed control at 125 ppm (Phytophthora infestans)
C(#Cc1ccncc1)CCNc1ncnc2sccc12 [compound 57] | 140 to 141 °C | 0 to 60% | 0 to 60% | 0 to 60%
COCc1ccccc1C#CCCNc1ncnc2ccc(I)cc12 [compound 322] | 121 to 123 °C | 60 to 100% | 60 to 100% | 0 to 60%
Fc1ccc(C#CCCNc2ncnc3ccccc23)cc1F [compound 166] | 161 to 162 °C | 60 to 100% | 60 to 100% | 60 to 100%
Cc1cccc(C#CCCNc2ncnc3sccc23)c1 [compound 18] | 120 to 123 °C | 60 to 100% | 60 to 100% | 0 to 60%
Clc1ncnc(NCCC#Cc2ccccc2)c1Cl [compound 357] | 122 to 123 °C | 0 to 60% | 60 to 100% | 60 to 100%
CC(=O)OCc1nc(C#CCCNc2ncnc3sccc23)cs1 [compound 73] | 128 to 129 °C | 60 to 100% | 60 to 100% | 60 to 100%
O=[N+]([O-])c1cccc(C#CCCNc2ncnc3sccc23)c1 [compound 39] | 171 to 172 °C | – | 60 to 100% | 60 to 100%
C(#Cc1cccnc1)CCNc1ncnc2sccc12 [compound 56] | 138 to 140 °C | – | 60 to 100% | 0 to 60%
Fc1cc(C#CCCNc2ncnc3sccc23)cc(F)c1F [compound 43] | 158 to 159 °C | – | 60 to 100% | 60 to 100%
Fc1ccc(C#CCCNc2ncnc3sccc23)c(F)c1 [compound 41] | 177 to 178 °C | – | 60 to 100% | 60 to 100%
O=[N+]([O-])c1ccc(C#CCCNc2ncnc3sccc23)cc1 [compound 40] | 184 to 185 °C | – | 60 to 100% | 60 to 100%
Fc1cccc(F)c1C#CCCNc1ncnc2sccc12 [compound 42] | 179 to 181 °C | – | 60 to 100% | 60 to 100%
CC(CC#Cc1ccccc1)Nc1ncnc2ccccc12 (stereo not drawn) [compound 270] | – | 60 to 100% | 60 to 100% | 0 to 60%
COCc1ccccc1C#CCCNc1ncnc2cccc(Cl)c12 [compound 314] | – | 60 to 100% | 60 to 100% | 0 to 60%
COc1cccc2c(NC(C)CC#Cc3ccc(F)cc3C(F)(F)F)ncnc12 (stereo not drawn) [compound 353] | – | 60 to 100% | 60 to 100% | 0 to 60%
COCOc1ccc(C#CCCNc2ncnc3ccccc23)cc1 [compound 121] | – | 60 to 100% | 60 to 100% | 60 to 100%
FC(F)(F)c1ccc(C#CCCNc2ncnc3ccccc23)nc1 [compound 197] | – | 60 to 100% | 60 to 100% | 0 to 60%
C(#Cc1ccnc2ccccc12)CCNc1ncnc2ccccc12 [compound 189] | – | 60 to 100% | 60 to 100% | 0 to 60%
COCc1ccccc1C#CCCNc1ncnc(Cl)c1Br [compound 366] | – | 60 to 100% | 60 to 100% | 60 to 100%
CN(c1ccc(C#CCCNc2ncnc3ccccc23)cc1)S(C)(=O)=O [compound 124] | – | 0 to 60% | 60 to 100% | 0 to 60%

Compound | melting point | pest or weed control at 125 µg/mL (Sphaerotheca fuliginea) | pest or weed control at 125 µg/mL [1] | pest or weed control at 125 ppm (Phytophthora infestans)
FC(F)(F)c1cc(Cl)ccc1C#CCCNc1ncnc2ccccc12 [compound 178] | – | 60 to 100% | 60 to 100% | 60 to 100%
CC(CC#Cc1ccccc1)Nc1ncnc2sccc12 (stereo not drawn) [compound 229] | – | 60 to 100% | 60 to 100% | 0 to 60%
CC(C)Oc1ccccc1C#CCCNc1ncnc2ccccc12 [compound 119] | – | 60 to 100% | 60 to 100% | 60 to 100%
CS(=O)(=O)Cc1ccccc1C#CCCNc1ncnc2ccccc12 [compound 162] | – | 0 to 60% | 60 to 100% | 0 to 60%
C(#Cc1csc(Oc2ccccc2)n1)CCNc1ncnc2sccc12 [compound 83, 4-[4-(2-Phenoxythiazol-4-yl)-3-butynylamino]thieno[2,3-d]pyrimidine] | – | 60 to 100% | 60 to 100% | 0 to 60%
C(#Cc1cccc2ncccc12)CCNc1ncnc2ccccc12 [compound 191] | – | 0 to 60% | 60 to 100% | 0 to 60%
CC(=O)c1ccc(C#CCCNc2ncnc3ccccc23)cc1 [compound 128] | – | 60 to 100% | 60 to 100% | 60 to 100%
CC(C)CC#CCCNc1ncnc2sccc12 [compound 7, 4-(6-Methyl-3-heptynylamino)thieno[2,3-d]pyrimidine] | – | 60 to 100% | 60 to 100% | 60 to 100%
COCc1ccccc1C#CCCNc1ncnc2ccc(-c3ccccc3)cc12 [compound 333] | – | 0 to 60% | 60 to 100% | 0 to 60%
CC(C)(C)C#CCCNc1ncnc2sccc12 [compound 8] | – | 60 to 100% | 60 to 100% | 60 to 100%
FC(F)(F)c1ccc(C#CCCNc2ncnc3ccccc23)cc1Cl [compound 177] | – | 60 to 100% | 60 to 100% | 60 to 100%
C(#Cc1csc(-c2ccco2)n1)CCNc1ncnc2sccc12 [compound 77] | 53 to 55 °C | 0 to 60% | – | 0 to 60%
N#Cc1cc(C(F)(F)F)ccc1C#CCCNc1ncnc2ccccc12 [compound 187] | – | 0 to 60% | 60 to 100% | 0 to 60%
FCc1ccccc1C#CCCNc1ncnc2ccccc12 [compound 99] | – | 60 to 100% | 60 to 100% | 60 to 100%
Cc1ccsc1C#CCCNc1ncnc2ccccc12 [compound 208] | – | 60 to 100% | 60 to 100% | 60 to 100%
FC(F)c1ccccc1C#CCCNc1ncnc2ccccc12 [compound 100] | – | 60 to 100% | 60 to 100% | 60 to 100%
CC(C)(C)[Si](C)(C)OCc1nc(C#CCCNc2ncnc3sccc23)cs1 [compound 71] | – | 60 to 100% | 60 to 100% | 60 to 100%
CC(CC#Cc1c(Cl)cccc1C(F)(F)F)Nc1ncnc2sccc12 (stereo not drawn) [compound 252] | – | 60 to 100% | 60 to 100% | 0 to 60%
C(#Cc1csc(Cc2ccccc2)n1)CCNc1ncnc2sccc12 [compound 75, 4-[4-(2-Benzylthiazol-4-yl)-3-butynylamino]thieno[2,3-d]pyrimidine] | – | 60 to 100% | 60 to 100% | 60 to 100%
